Source: US20260151492A1 (priority 2022, published 2026)
Where two headings read alike, the source gives them in different places.

Columns and labels:
Mecp2-null mice = settings: cited from earlier work
DRD2L [1] = target: T1, DRD2L (Homo sapiens, UniProt P14416); settings: statement on ketamine, no own data shown; cited from earlier work
Sigma 2 [2] = target: T2, Sigma 2 (Homo sapiens, UniProt Q5BJF2); settings: literature (Pergolizi, 2023; Bonaventura, 2021); cited from earlier work
DRD2L [3] = target: T1, DRD2L; assay: D2L human dopamine GPCR cell based agonist cAMP assay
NMDAR 1A/2B = NMDAR 1A/2B (Homo sapiens, UniProt Q05586+Q13224); assay: NMDAR 1A/2B antagonist (ion channel blocker) assay; type: cell-based
Sequence of NMDAR 1A/2B (Q13224 27-1484, other chains not shown): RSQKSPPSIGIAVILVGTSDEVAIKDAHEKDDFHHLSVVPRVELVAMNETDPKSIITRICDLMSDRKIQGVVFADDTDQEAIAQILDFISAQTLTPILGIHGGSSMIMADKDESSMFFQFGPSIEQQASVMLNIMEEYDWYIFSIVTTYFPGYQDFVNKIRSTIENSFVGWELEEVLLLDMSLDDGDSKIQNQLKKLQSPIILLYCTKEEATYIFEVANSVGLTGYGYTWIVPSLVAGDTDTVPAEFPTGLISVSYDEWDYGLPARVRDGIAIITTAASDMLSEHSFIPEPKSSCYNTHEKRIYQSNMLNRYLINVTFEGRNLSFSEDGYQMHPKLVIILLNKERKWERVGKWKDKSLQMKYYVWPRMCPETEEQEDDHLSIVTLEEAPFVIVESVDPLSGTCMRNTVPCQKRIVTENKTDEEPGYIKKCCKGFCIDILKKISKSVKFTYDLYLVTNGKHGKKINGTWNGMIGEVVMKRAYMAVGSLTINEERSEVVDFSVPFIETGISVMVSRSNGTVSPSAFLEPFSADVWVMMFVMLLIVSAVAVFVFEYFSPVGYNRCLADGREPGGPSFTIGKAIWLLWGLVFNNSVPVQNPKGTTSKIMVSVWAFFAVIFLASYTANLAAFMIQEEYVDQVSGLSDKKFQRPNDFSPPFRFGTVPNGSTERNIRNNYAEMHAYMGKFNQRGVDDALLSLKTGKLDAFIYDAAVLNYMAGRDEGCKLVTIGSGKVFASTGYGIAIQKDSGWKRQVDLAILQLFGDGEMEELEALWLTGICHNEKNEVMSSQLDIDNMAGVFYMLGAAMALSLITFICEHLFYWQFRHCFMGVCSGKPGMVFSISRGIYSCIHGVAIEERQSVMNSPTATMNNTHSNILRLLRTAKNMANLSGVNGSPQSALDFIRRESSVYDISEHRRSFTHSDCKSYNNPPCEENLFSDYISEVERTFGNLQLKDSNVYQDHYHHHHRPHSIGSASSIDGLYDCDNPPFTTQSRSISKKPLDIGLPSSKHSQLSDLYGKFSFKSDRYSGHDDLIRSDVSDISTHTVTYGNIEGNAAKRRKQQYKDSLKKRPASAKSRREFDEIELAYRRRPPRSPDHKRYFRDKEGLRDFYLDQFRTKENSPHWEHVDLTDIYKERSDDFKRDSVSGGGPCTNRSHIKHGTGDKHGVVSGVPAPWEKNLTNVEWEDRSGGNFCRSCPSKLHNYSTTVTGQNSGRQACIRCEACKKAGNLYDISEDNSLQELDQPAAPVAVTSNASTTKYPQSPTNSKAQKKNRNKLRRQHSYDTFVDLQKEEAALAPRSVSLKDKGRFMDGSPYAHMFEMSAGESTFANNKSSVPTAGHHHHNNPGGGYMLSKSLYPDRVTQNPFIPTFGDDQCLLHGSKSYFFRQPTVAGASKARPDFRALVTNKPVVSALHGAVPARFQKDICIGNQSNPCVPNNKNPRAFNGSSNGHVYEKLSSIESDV

Opiate k = Opiate k (Homo sapiens, UniProt P41145); assay: Opiate k binding assay
Sequence of Opiate k (P41145 whole entry): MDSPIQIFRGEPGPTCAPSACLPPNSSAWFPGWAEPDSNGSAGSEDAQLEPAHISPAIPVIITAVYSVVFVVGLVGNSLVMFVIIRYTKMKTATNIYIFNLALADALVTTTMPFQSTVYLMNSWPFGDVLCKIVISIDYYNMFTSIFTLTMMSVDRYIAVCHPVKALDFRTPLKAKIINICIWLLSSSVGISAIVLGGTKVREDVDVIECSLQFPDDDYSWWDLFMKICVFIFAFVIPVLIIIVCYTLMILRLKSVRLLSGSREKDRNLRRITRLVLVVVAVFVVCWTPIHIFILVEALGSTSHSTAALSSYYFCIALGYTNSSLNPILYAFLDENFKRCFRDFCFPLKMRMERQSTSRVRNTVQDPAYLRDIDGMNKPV

Opiate μ = Opiate μ (Homo sapiens, UniProt P35372); assay: Opiate μ binding assay
Sequence of Opiate μ (P35372 whole entry): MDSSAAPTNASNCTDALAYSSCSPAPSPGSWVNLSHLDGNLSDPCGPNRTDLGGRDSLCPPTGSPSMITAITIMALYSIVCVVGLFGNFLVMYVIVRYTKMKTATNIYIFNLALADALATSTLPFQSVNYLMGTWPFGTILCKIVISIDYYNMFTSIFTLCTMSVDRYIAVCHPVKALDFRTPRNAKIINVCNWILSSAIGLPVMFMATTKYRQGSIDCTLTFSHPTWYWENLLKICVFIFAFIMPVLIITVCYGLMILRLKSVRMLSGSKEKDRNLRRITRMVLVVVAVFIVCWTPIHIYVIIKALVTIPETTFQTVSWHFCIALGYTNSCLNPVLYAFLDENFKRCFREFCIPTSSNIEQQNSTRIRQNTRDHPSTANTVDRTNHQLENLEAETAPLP

Sigma 2 [4] = target: T2, Sigma 2; assay: Sigma 2 binding assay

T1 sequence (P14416 whole entry): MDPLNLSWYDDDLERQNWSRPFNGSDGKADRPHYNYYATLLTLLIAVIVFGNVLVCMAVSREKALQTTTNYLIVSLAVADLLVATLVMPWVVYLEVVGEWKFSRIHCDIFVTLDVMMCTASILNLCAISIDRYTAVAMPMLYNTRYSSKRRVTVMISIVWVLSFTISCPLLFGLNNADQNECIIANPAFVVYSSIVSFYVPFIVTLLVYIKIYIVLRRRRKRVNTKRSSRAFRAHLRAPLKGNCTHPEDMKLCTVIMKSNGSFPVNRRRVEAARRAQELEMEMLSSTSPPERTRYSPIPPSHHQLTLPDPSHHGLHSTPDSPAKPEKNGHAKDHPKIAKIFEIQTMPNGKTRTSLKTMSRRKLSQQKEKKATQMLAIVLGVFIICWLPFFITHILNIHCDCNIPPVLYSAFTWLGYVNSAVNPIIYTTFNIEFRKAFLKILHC
T2 sequence (Q5BJF2 whole entry): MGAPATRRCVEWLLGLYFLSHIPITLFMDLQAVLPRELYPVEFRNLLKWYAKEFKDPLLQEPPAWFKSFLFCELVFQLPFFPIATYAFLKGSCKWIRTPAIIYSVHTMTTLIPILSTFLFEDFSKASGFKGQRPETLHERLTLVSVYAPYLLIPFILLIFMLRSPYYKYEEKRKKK

## CNC1(c2ccccc2Cl)CCCCC1=O (racemic) [Ketamine, (R,S)-ketamine]
Mecp2-null mice; 8 mg/kg IP every day for 40 days (total 320 mg/kg), at 80 days post natal
  Improvement of survival: 50%
Mecp2-null mice; 8 mg/kg/day ip from day 15 to day 55 (320 mg/kg total)
  Efficacy of treatment (in words): some efficacy
Mecp2-null mice; 8 mg/kg/day ip from day 30 to day 55 (200 mg/kg total)
  Efficacy of treatment (in words): not effective
Mecp2-null mice; after treatment with 320 mg/kg of ketamine, published data
  Survival: 50%
DRD2L [1]
  Affinity for dopamine 2 receptors (in words): not shown any affinity
Sigma 2 [2]
  Binding to sigma2 receptors (in words): binds sigma2 receptors at mM concentrations

## NC1(c2ccccc2Cl)CCCCC1=O (racemic) [NorKetamine, (R,S)-Norketamine]
DRD2L [3]
  Binding to Dopamine 2 receptors (in words): does not appear to bind
NMDAR 1A/2B; IC50, NMDAR 1A/2B antagonist assay, FIG. 15A
  IC50: 6.96 µM
NMDAR 1A/2B; NMDAR 1A/2B Ion channel blocker, Table 5
  IC50: 6.9 µM
Opiate k
  IC50: 667 µM
  Ki: 381 µM
Opiate μ
  Ki, Opioid μ receptors: does not bind
Sigma 2 [4]
  IC50: 246 µM
